Values quoted from earlier work in patent publication US11351128B1, “Pharmaceutical compositions and methods of administration” (priority 2021, dated 2022).

In the case of `CCN(CC)C(=S)SSC(=S)N(CC)CC` [Disulfiram, tetraethyldisulfane-carbothioamide or 1-(diethylthiocarbamoyl-disulfanyl)-N,N-diethyl-methanethioamide], the “soluble in water to the extent of” value is given as “about 20 mg in 100 ml”.
